# Assay results taken from ChEMBL document CHEMBL1128932, “Liposome-like fucopeptides as sialyl lewis X mimetics” (Bioorg Med Chem Lett, 1996).
# Target: T1, E-selectin (Homo sapiens, UniProt P16581)
# T1 sequence (P16581 whole entry): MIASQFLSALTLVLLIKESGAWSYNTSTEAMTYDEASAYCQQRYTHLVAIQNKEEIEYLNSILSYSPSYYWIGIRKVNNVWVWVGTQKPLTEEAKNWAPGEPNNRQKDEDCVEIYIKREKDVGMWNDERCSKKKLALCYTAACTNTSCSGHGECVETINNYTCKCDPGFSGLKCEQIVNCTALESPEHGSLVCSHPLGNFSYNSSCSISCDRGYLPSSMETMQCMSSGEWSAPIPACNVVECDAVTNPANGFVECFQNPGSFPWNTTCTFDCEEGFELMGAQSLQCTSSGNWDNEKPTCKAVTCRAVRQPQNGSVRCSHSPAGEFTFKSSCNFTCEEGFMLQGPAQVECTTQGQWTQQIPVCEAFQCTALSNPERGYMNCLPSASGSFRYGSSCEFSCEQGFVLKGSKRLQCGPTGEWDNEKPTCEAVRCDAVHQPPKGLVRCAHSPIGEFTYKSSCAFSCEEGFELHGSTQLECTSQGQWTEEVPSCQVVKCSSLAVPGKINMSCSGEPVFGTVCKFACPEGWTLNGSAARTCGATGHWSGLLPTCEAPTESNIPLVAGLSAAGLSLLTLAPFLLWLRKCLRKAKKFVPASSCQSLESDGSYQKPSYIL
# Assay: Ability to inhibit sialyl Lewis X binding to Selectin E was determined
row,Compound,IC50
1,CC(=O)N[C@H]1[C@H]([C@H](O)[C@H](O)CO)O[C@@](O[C@H]2[C@@H](O)[C@@H](CO)O[C@@H](O[C@@H]([C@H](O[C@@H]3O[C@@H](C)[C@@H](O)[C@@H](O)[C@@H]3O)[C@H](C=O)NC(C)=O)[C@H](O)CO)[C@@H]2O)(C(=O)O)C[C@@H]1O [SIALYL LEWIS X],500 µM

# Target: T1, E-selectin
# Assay: Inhibitory activity against Selectin E
row,IC50,Compound
1,1000 µM,CCOC(=O)[C@@H](NC(=O)[C@@H]1C[C@H](O)CN1C(=O)CCCC(=O)O)[C@@H](C)O[C@@H]1O[C@@H](C)[C@@H](O)C(O)C1O (some centres not stated)
2,50 µM,CCOC(=O)[C@@H](NC(=O)[C@@H]1[C@@H](O)[C@@H](O)CN1C(=O)CCCC(=O)O)[C@@H](C)O[C@@H]1O[C@@H](C)[C@@H](O)C(O)C1O (some centres not stated)
3,100 µM,CCOC(=O)[C@@H](NC(=O)[C@H]1C[C@H](O)CN1C(=O)CCCC(=O)O)[C@@H](C)O[C@@H]1O[C@@H](C)[C@@H](O)C(O)C1O (some centres not stated)
4,900 µM,CCOC(=O)[C@@H](NC(=O)C(CO)(CO)NC(=O)CCCC(=O)O)[C@@H](C)O[C@@H]1O[C@@H](C)[C@@H](O)C(O)C1O (some centres not stated)
5,300 µM,CCOC(=O)[C@@H](NC(=O)[C@@H]1C[C@@H](O)CN1C(=O)CCCC(=O)O)[C@@H](C)O[C@@H]1O[C@@H](C)[C@@H](O)C(O)C1O (some centres not stated)
6,3000 µM,CCOC(=O)[C@@H](NC(=O)[C@H]1C[C@@H](O)CN1C(=O)CCCC(=O)O)[C@@H](C)O[C@@H]1O[C@@H](C)[C@@H](O)C(O)C1O (some centres not stated)

# Further lines, the molecule ahead of its results:
row,Compound,IC50
1,"CCOC(=O)[C@@H](NC(=O)C1C[C@@H](O)CN1C(=O)CCCC(=O)O)[C@@H](C)O[C@H]1O[C@@H](C)[C@@H](O)C(O)C1O (single isomer, unassigned)",100 µM
2,CCCCCCCCCCCCCCCCOC(=O)CC[C@H](NCCOCCOCCNC(=O)[C@@H](NC(=O)[C@H]1C[C@H](O)CN1C(=O)CCCC(=O)O)[C@@H](C)O[C@@H]1O[C@@H](C)[C@@H](O)C(O)C1O)C(=O)OCCCCCCCCCCCCCCCC (some centres not stated),500 µM
3,CCCCCCCCCCCCCCCCOC(=O)CC[C@H](NC(=O)CNC(=O)[C@@H](NC(=O)[C@H]1C[C@H](O)CN1C(=O)CCCC(=O)O)[C@@H](C)O[C@@H]1O[C@@H](C)[C@@H](O)C(O)C1O)C(=O)OCCCCCCCCCCCCCCCC (some centres not stated),500 µM
4,CCOC(=O)[C@@H](NC(=O)[C@H](NC(=O)CCCC(=O)O)[C@@H](O)CO)[C@@H](C)O[C@@H]1O[C@@H](C)[C@@H](O)C(O)C1O (some centres not stated),500 µM
5,C[C@@H]1O[C@@H](O[C@@H]2CCCC[C@H]2NC(=O)[C@@H]2[C@@H](O)[C@@H](O)CN2C(=O)CCCC(=O)O)C(O)C(O)[C@@H]1O (some centres not stated),5000 µM
